Consider one substance from patent US5827821A, “Conformationally stabilized cell adhesion peptides” (The Burnham Institute, priority 1992, dated 1998).

For test [1], the system named is attachment of normal rat kidney cells to vitronectin. The experiment in a line: Cell adhesion assay: inhibition of attachment of normal rat kidney cells to vitronectin. The test is classed as cell-based. Particulars: vitronectin-coated wells, peptide 0 to 10.0 mM, FIG. 2. As to the method:
(§1) Fibronectin and vitronectin were purified from human plasma according to the methods of Ruoslahti et al., (1982) Meth. Enz. 82:803; and Hayman et al., (1983) PNAS 80:4003, respectively, both of which are incorporated herein by reference. The adhesion of normal rat kidney cells to fibronectin and vitronectin was assayed as described in Ruoslahti et al., Meth. Enz. supra. Briefly, 0.1 ml solution of fibronectin or vitronectin at a concentration of 12 μg/ml in 0.1M PBS was placed in each well of 96-well plastic microtiter plates and left for 2 hours at room temperature. The unattached protein was removed by washing three times with PBS.
(§2) One day before the assay, a confluent culture of normal rat kidney cells was split 1:2 using standard tissue culture trypsin. The cells were washed three times with PBS, pH 7.2. […] Before the last centrifugation, a sample was taken and cell numbers and viability by trypan blue exclusion are determined. […]
(§3) The unattached cells were removed simply by removing the medium and washing the wells. […] The cells were then fixed with 3% paraformaldehyde in PBS and stained with 1% toluidine blue, paraformaldehyde in PBS, and attached cells counted. Their number was determined using a cell counter that is capable of counting cells attached to a surface (Dynatech Laboratories, Alexandria, Va.). […]

Test [2] relates to attachment of normal rat kidney cells to fibronectin. The test is described as follows: Cell adhesion assay: inhibition of attachment of normal rat kidney cells to fibronectin. Format: cell-based. Conditions: fibronectin-coated wells, peptide 0 to 10.0 mM, FIG. 2. As to the method:
as §1, §2, §3

Where no end group is shown, it is not given here. [ ]: non-standard residue; d: D form. Pen = CC(C)(S)[C@H](N)C(=O)O

For “G[Pen]GRGDSPC (cysteine pairing not given here) [linear peptide]”, the “inhibition of attachment to vitronectin” value in test [1] was “inhibited attachment of cells to both substrates at relatively similar concentrations”. Further, the “inhibition of attachment to fibronectin” value in test [2] was “inhibited attachment of cells to both substrates at relatively similar concentrations”.
